# Test system: influenza A (H1N1) virus-infected egg cells
# Test: Quantity of IL-1 released by influenza A (H1N1) virus-infected egg cells
# Format: cell-based
# Details: for quantity of IL-1 released: 24 hours, FIG. 5; for percentage of quantity of human IL-1 released relative to quantity of isolated egg cells (diluted 1:50): uninfected culture 1 = 100%, FIG. 6
# Protocol: Experiments were conducted to evaluate the effects of particular phytochemical compositions provided by the present disclosure on quantity of IL-1 released by virus-infected cells. Virus-infected cells used for the experiments described in this example are influenza A (H1N1) virus-infected cells. More specifically, the virus-infected cells used for the experiments described in this example are influenza A (H1N1) virus-infected egg cells. The influenza A (H1N1) virus can be isolated from patients infected with the influenza A (H1N1) using standard techniques known to a person of ordinary skill in the art. In addition, isolation of cells (e.g., egg cells), and the infection of cells (e.g., isolated egg cells) can be performed using standard techniques or method known to a person of ordinary skill in the art. It is understood by a person having ordinary skill in the art that the influenza A (H1N1) virus-infected egg cells may be substituted for other viral-infected cells, or other cells found within the body, for instance, cells that that are involved in inflammatory responses within the body.
# Six cultures of cells, i.e., culture 1 to culture 6, were prepared. The contents of each of cultures 1 to culture 6 are as follows: • (i) Culture 1: Control culture 1. Includes a predetermined volume of a sample of isolated egg cells that has been diluted in a ratio of 1:50; • (ii) Culture 2: Control culture 2. Includes the predetermined volume of the sample of isolated egg cells similar to that of culture 1 that have been infected with the influenza A (H1N1) virus diluted at a ratio of 1:7812500; • (iii) Culture 3: Control culture 3. Includes the predetermined volume of the sample of isolated egg cells similar to that of culture 1 and a volume of DMSO that has been infected with the influenza A (H1N1) virus diluted at a ratio of 1:7812500; • (iv) Culture 4: Includes the predetermined volume of the sample of isolated egg cells that have been infected with the influenza A (H1N1) virus similar to that of culture 2, and a volume of phytochemical composition providing sesamin at a concentration of 0.5 ug/ml; • (v) Culture 5: Includes the predetermined volume of the sample of isolated egg cells that have been infected with the influenza A (H1N1) virus similar to that of culture 2, and a volume of phytochemical composition providing sesamin at a concentration of 1.0 ug/ml; and • (vi) Culture 6: Includes the predetermined volume of the sample of isolated egg cells that have been infected with the influenza A (H1N1) virus similar to that of culture 2, and a volume of phytochemical composition providing sesamin at a concentration of 10.0 ug/ml.
# In the experiments of example six, each of cultures 1 to 6 is made up to a final volume of approximately 200 μl in a well of a standard 96 well plate. It will be understood by a person of ordinary skill in the art that an alternative final volume (e.g., 100 μl) may also be used. The number or concentration of isolated egg cells used for each culture is approximately equal. For instance, the number of isolated egg cells used for each culture is approximately 2×10^5 (i.e., 200,000). It will be understood by a person of ordinary skill in the art that the number or concentration of isolated egg cells used for each of cultures 1 to 6 can be adjusted as required by varying the degree of dilution of the cultures (e.g., by increasing total volume of the culture by adding medium).
# Each of cultures 1 to 6 was incubated at the same physical conditions for an equal length of time. More specifically, each culture was incubated at a temperature of 37° C. with 5% of carbon dioxide for 24 hours. The amount of IL-1 released from the isolated egg cells of each of cultures 1 to 6 was measured or determined using methods or techniques known to a person having ordinary skill in the relevant art.
structure (smiles),measurement,setting,value
c1cc2c(cc1[C@H]1OC[C@H]3[C@@H]1CO[C@@H]3c1ccc3c(c1)OCO3)OCO2 [sesamin],quantity of IL-1 released,0.5 ug/ml sesamin (culture 4),approximately 4 pg/ml
same,percentage of quantity of human IL-1 released relative to quantity of isolated egg cells (diluted 1:50),0.5 ug/ml sesamin,approximately 22%
same,quantity of IL-1 released,1.0 ug/ml sesamin (culture 5),approximately 3.5 pg/ml
same,percentage of quantity of human IL-1 released relative to quantity of isolated egg cells (diluted 1:50),1.0 ug/ml sesamin,approximately 18%
same,quantity of IL-1 released,10.0 ug/ml sesamin (culture 6),approximately 3 pg/ml
same,percentage of quantity of human IL-1 released relative to quantity of isolated egg cells (diluted 1:50),10.0 ug/ml sesamin,approximately 16%

# Reference: patent US20170333390A1, “PHYTOCHEMICAL COMPOSITIONS INCLUDING SESAMIN FOR ANTI-INFLAMMATORY, ANTI-CYTOKINE STORM, AND OTHER USES” (CHIANG MAI UNIVERSITY, priority 2009, published 2017)
